# Measurements published in patent US20250375417A1, “OREXIN RECEPTOR 2 (OX2R) AGONIST FOR USE IN NARCOLEPSY TYPE 1 (NT1)” (TAKEDA PHARMACEUTICAL COMPANY LIMITED, priority 2024, published 2025).
# How the values were obtained:
# Assay type in all cases: in vivo, human
# participants with NT1 [1] = assay: Maintenance of Wakefulness Test (MWT) sleep onset latency, Phase 2 NT1 trial (Example 1)
# Method: In some aspects of the methods described herein, the subject experiences a higher mean sleep latency (also referred to as sleep onset latency or SOL) from the Maintenance of Wakefulness Test (MWT) after a treatment period compared to an untreated subject. The MWT is a validated, objective measure that evaluates a person's ability to remain awake under soporific conditions for a defined period of time. Because there is no biological measure of wakefulness, wakefulness is measured indirectly by the inability or delayed tendency to fall asleep. This tendency to fall asleep is measured via electroencephalography-derived sleep latency in the MWT. One MWT, that includes four 40-minute wake trials, is done on each day specified in the Schedule of Activities of the trial. Sleep latency in each wake trial is recorded. Participants are required to stay awake in between the 4 MWT wake trials.
# During each MWT wake trial, participants are instructed to sit in a bed or reclining chair and remain awake for as long as possible in a dimly lit room. Wake trials are ended after 40 minutes if no sleep occurs. If no sleep has been observed according to these rules, then the latency is defined as 40 minutes.
# Randomization was stratified by region. Starting on the morning of Day 1, the study drug was administered at approximately the same time each day for 8 or 12 weeks. If the participant wished to enroll in the long-term extension (LTE) study described in Example 3 but the LTE study had not started at the participant's site when the participant completed the Week 8 visit of the current study, the participant was allowed to continue in the current study for an additional 4 weeks.
# The following doses were studied: • Compound A Dose Regimen 1:0.5 mg twice daily approximately 3 hours apart. • Compound A Dose Regimen 2:2 mg twice daily approximately 3 hours apart. • Compound A Dose Regimen 3:2 mg followed by 5 mg approximately 3 hours apart. • Compound A Dose Regimen 4:7 mg once daily (QD). • Other products required for the study: Matching placebo.
# Dose regimens included once daily (QD) or twice daily (approximately 3 hours apart) dosing. Study treatment was administered at approximately 8 AM and 11 AM. (Participants assigned to a QD dose regimen received placebo for the second dose. Participants assigned to placebo received placebo for both doses).
# Endpoints included change from baseline to Week 8 in mean sleep onset latency on the Maintenance of Wakefulness Test (SOL-MWT; primary endpoint), ESS total score, weekly cataplexy rate (WCR), and occurrence of treatment-emergent adverse events (TEAEs).
# participants with NT1 [2] = assay: Psychomotor vigilance test (PVT), sustained attention, Phase 2 NT1 trial
# Source text: The psychomotor vigilance test (PVT) is validated as a clinical outcome assessment of the ability to sustain attention. The PVT is a simple reaction performance task that aims to measure sustained attention with no learning effects over repeated administration. Differences between healthy controls and patients with narcolepsy have been found on PVT performance for reaction time, accuracy, and other measures. The PVT is sensitive to the effects of total sleep loss, partial sleep restriction, naps, and circadian variation in the healthy population. The duration of test is 10 minutes.
# Outcomes of this study included a performance-based test of attention, the Psychomotor Vigilance Task (PVT; administered 1 and 7 hours post first dose, assessed at baseline and weeks 4 and 8) and two assessments of EDS: the Maintenance of Wakefulness Test (MWT; administered 2, 4, 6, and 8 hours post first dose, assessed over 4 sessions) and the Epworth Sleepiness Scale (ESS; using a 7-day recall period, assessed at baseline and weeks 2, 4, and 8). At baseline, associations between attention (as measured by number of PVT lapses), and objective (MWT) and subjective (ESS) measures of EDS were computed. For PVT and MWT, covariation in change throughout the day at end of study was investigated. The effect of different Compound A doses on wakefulness and attention were compared for each outcome. […]
# participants with NT1 [3] = assay: Functional Impacts of Narcolepsy Instrument (FINI), Phase 2 NT1 trial; details: range across Compound A doses
# Source text: The functional impact of NT1 on subjects can be assessed by the FINI. The FINI is a fit-for-purpose 28-item instrument developed by the sponsor to ensure easy to interpret concepts that are meaningful to narcolepsy patients. The FINI measures the functional impacts of narcolepsy across 6 domains: Tiredness (items 1-7), Cognitive Functioning (items 8-12), Cataplexy (items 13-17), Social Activities (items 18-21), Everyday Activities (items 22-25), and Everyday Responsibilities (items 26-28). Each item asks about the impact that narcolepsy has had on their daily functioning during the past 7 days, and scored from 0-4, where 0 indicates the best health and 4 the worst. There is no total score; for each participant, an average score is calculated for each domain, if at least half the items in the domain have been answered:
# Sum of responses in the domain/Number of completed items in the domain
# The average domain score is then standardized to a 0-100 scale, where 0 indicates the best health and 100 the worst health. A decrease from baseline would thus indicate improved health:
# Standardized score=average score/4×100
# An analysis of exploratory data from the trial investigated the effect of Compound A on functioning and HRQoL in individuals with ICSD-3 confirmed NT1. Participants aged 18-70 years (Japan: 16-70), with an Epworth Sleepiness Scale (ESS) score>12, and ≥4 partial/complete episodes of cataplexy/week were eligible for inclusion. Participants were randomized to oral Compound A (0.5 mg twice 3 hours apart, 2 mg twice 3 hours apart, 2 mg then 5 mg 3 hours later, or 7 mg once-daily), or placebo. Exploratory endpoints included 3 domains (social activities, everyday activities, and everyday responsibilities) from the 6-domain Functional Impacts of Narcolepsy Instrument (FINI) in which each item uses 5-point Likert scale and higher standardized domain scores (0-100) indicate more severe impact; the 36-item short-form (SF-36); and the EuroQoL 5-Dimensions 5-Levels (EQ-5D-5L) questionnaire.
smiles,measurement,setting,value
"CCS(=O)(=O)N[C@@H]1[C@H](Cc2cccc(-c3cc(F)cc(F)c3)c2F)N(C(=O)C(C)(C)O)CC1(F)F [Compound A, N-{(2S,3R)-4,4-difluoro-1-(2-hydroxy-2-methylpropanoyl)-2-[(2,3′,5′-trifluoro[1,1′-biphenyl]-3-yl)methyl]pyrrolidin-3-yl}ethanesulfonamide]",LS mean (SE) change from baseline to Week 8 in SOL-MWT,participants with NT1 [1]; 0.5 mg/0.5 mg,12.49 (2.13) minutes
same,LS mean (SE) change from baseline to Week 8 in SOL-MWT,participants with NT1 [1]; 2 mg/2 mg,23.50 (2.04) minutes
same,LS mean (SE) change from baseline to Week 8 in SOL-MWT,participants with NT1 [1]; 2 mg/5 mg,25.42 (2.07) minutes
same,LS mean (SE) change from baseline to Week 8 in SOL-MWT,participants with NT1 [1]; 7 mg,14.96 (1.95) minutes
same,"PVT lapses, least squares mean differences from placebo","participants with NT1 [2]; all Compound A doses, 1 hour and 7 hours post-first dose (p<0.05)",significant
same,Attention (PVT lapses),"participants with NT1 [2]; week 8, all doses (all p<0.05)",improved attention across all doses
same,"FINI-Everyday Activities, LS mean change from baseline to Week 8",participants with NT1 [3],−41.4 to −54.5
same,"FINI-Everyday Responsibilities, LS mean change from baseline to Week 8",participants with NT1 [3],−35.0 to −53.7
same,"FINI-Social Activities, LS mean change from baseline to Week 8",participants with NT1 [3],−29.9 to −43.1
